The text below walks through data of patent publication US20160263048A1, “BIOADHESIVE POLYMER-BASED CONTROLLED-RELEASE SYSTEMS, PRODUCTION PROCESS AND CLINICAL USES THEREOF” (priority 2010, published 2016).

The nature of one data set: Solubility in water. The format is physicochemical. The settings on record: molar ratio TrA/HPβCD 1:10. The source says: Currently used cyclodextrins are preferably semi-synthetic derivatives of β-cyclodextrin, soluble in highly polar organic solvents, marketed by Roquette or Wacker such as hydroxypropyl-βCD (HPβCD) and Methyl-βCD. The HPβCD marketed by Roquette under the name Kleptose® HP is an amorphous white powder, with a solubility in water higher than 1 g/ml. Further to this, it has a good stability both in acidic and in basic milieu and can be used to administrate drugs both by injection and by the oral route. The second one, under the name Kleptose® Crysmeb® exp, is a mixture of cyclodextrins which contain from one to seven methyl groups. Crysmeb® has an average of 4 methyl groups for one cyclodextrin molecule and has an average molecular weight of 1191 dalton. It is a white powder, easily soluble in water and its solubility grows with the temperature, and, in addition, it is very stable both in and acidic and in basic milieus.
Such a capability was tested for the buccal release of triamcinolone acetonide (TrA), a corticosteroid drug poorly soluble in water. According to the European Pharmacopeia, TrA is a drug that is practically not soluble in water, since its solubility in this vehicle is about 0.02 mg/ml. The presence of HPβCD in the film enhances TrA solubility by 600 fold, i.e., to about […] (molar ratio TrA/HPβCD 1:10). […]

For data set [1] the following is noted: cited from earlier work.

Read-outs that look alike come from different tables or passages of the source.

For the compound `CC1(C)O[C@@H]2C[C@H]3[C@@H]4CCC5=CC(=O)C=C[C@]5(C)[C@@]4(F)[C@@H](O)C[C@]3(C)[C@]2(C(=O)CO)O1` [TrA, triamcinolone acetonide], the “enhancement of TrA solubility by presence of HPβCD” value in the data set “Solubility in water” is 600 fold. In “Solubility in water” (no further enhancement at higher HPβCD concentration), the “TrA solubility in presence of HPβCD” value is recorded as “about 4 % w/v”. The solubility in water entry in data set [1] (according to the European Pharmacopeia) is reported as “about 0.02 mg/ml”.
Turning to hydroxypropyl-βCD [HPβCD], in data set [1] (Kleptose® HP marketed by Roquette), the solubility in water entry is on record as “higher than 1 g/ml”.
